Test results as given in patent US9610367B2, “Particle and contrast agent having the particle” (CANON KABUSHIKI KAISHA, priority 2010, dated 2017).

Legend:
Assay type in all cases: physicochemical
[1] = dissolution of ICG in chloroform with lipids without a positively charged region; conditions: lipid without positively charged region used instead of DOPE
Excerpt: Instead of DOPE of Example 1, lipids (chemical formula 8, tristearin; chemical formula 9, triolein; chemical formula 10, ethyl stearate; chemical formula 11, β-carotene; and chemical formula 12, cholesterol acetate) without a positively charged region represented by the following chemical formulas 8 to 12 were used to prepare an ICG composition in the same manner as in Example 1. However, ICG was not dissolved in chloroform in any case, and a target polymer nanoparticle containing ICG could not be obtained.

[2] = solubility of ICG in dichloromethane when phospholipid was added; conditions: phospholipid not added; inferred from absorption curve integral values
Description: 2 molar equivalents of a phospholipid was added to 5.5 mg of ICG. As the phospholipid, DSPC or DOPE was used. Each of these ICG-phospholipid mixtures was dissolved in 2 mL of dichloromethane. Controls were prepared by dissolving in ICG in methanol or dichloromethane. All these ICG solutions were filtered with a filter having a pore size of 0.2 μm and then diluted 500-fold with dichloromethane.

[3] = stability of aqueous dispersion: absorbance at λmax over time at 4° C. in a dark place; conditions: at 48 hours; ICG dissolved in water
Description: To evaluate the stability of polymer nanoparticles, aqueous dispersions of PNP1 and PNP2 were allowed to stand at 4° C. in a dark place, and changes in the absorbance at λmax were measured over time. The results are illustrated in FIGS. 5 and 6. As a comparative example, changes with time in the absorbance at λmax of NPL 1 and in an ICG solution are illustrated in FIG. 5.
Changes in the absorbance of the aqueous dispersions of PNP4 to PNP6 at λmax were measured over time in the same manner as in Example 9. The results are illustrated in FIGS. 7 and 8. As a comparative example, changes with time in the absorbance at λmax of NPL 1 and in an ICG solution are illustrated in FIG. 7.
The PNP10 prepared in Example 13 was diluted with water, and the absorbance was measured over time with an absorption spectrometer (Perkin Elmer). The dispersion was shielded from a light except when measurement was performed and stored at 4° C. The measurement results are illustrated in FIG. 9.

Compound | dissolution of ICG in chloroform [1] | ICG dissolved in dichloromethane [2] | absorbance change rate at λmax [3]
CC(=O)O[C@H]1CC[C@@]2(C)C(=CC[C@H]3[C@@H]4CC[C@H]([C@H](C)CCCC(C)C)[C@@]4(C)CC[C@@H]32)C1 [cholesterol acetate] | not dissolved |  | 
CCCCCCCC/C=C\CCCCCCCC(=O)OCC(COC(=O)CCCCCCC/C=C\CCCCCCCC)OC(=O)CCCCCCC/C=C\CCCCCCCC [triolein] | not dissolved |  | 
indocyanine green [ICG] |  | approximately 0.6 mM | 70%

Second part, led by results:

dissolution of ICG in chloroform [1] | Compound | ICG dissolved in dichloromethane [2] | absorbance change rate at λmax [3]
not dissolved | CCCCCCCCCCCCCCCCCC(=O)OCC [ethyl stearate] |  | 
not dissolved | CCCCCCCCCCCCCCCCCC(=O)OCC(COC(=O)CCCCCCCCCCCCCCCCC)OC(=O)CCCCCCCCCCCCCCCCC [tristearin] |  | 
